Drawing on patent US10689377B2 (Mirati Therapeutics, Inc., priority 2017, dated 2020), this text covers IC50 for 24 molecules.

pIC50: −log10 of the molar value. Counter-ions that a name gives are not always drawn.

Chain of KRas G12C (P01116 1-188 isoform P01116-2 G12C): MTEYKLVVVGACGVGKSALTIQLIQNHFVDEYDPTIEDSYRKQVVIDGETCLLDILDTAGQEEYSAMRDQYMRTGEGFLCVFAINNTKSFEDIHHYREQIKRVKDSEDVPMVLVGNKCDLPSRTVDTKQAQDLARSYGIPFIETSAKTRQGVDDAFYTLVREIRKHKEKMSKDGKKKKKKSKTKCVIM

In this assay the target is KRas G12C (Homo sapiens, UniProt P01116, G12C). The assay can be described thus: Cellular inhibition of KRas G12C measured by Phospho-ERK in NCI-H358 cells. Format: cell-based. To be noted: pERK(Thr202/Tyr204) normalized with GAPDH, NCI-H358 cells, 3 hours; read-out: IC50. Summed up:
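Ratio of phospho-ERK(Thr202/Tyr204) to GAPDH, read by near-infrared secondary antibodies on fixed, permeabilised NCI-H358 cells, expressed relative to DMSO control. Compound exposure was 3 h at 0.5% DMSO. IC50 values come from 4-parameter curve fits.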
Turning to `C=CC(=O)N1CCN(c2nc(OC[C@@H]3CCCN3C)nc3c2CCN(c2cnccc2C(F)(F)F)C3)CC1CC#N` (stereo partly drawn) [Example 212, 2-(1-acryloyl-4-(2-(((S)-1-methylpyrrolidin-2-yl)methoxy)-7-(4-(trifluoromethyl)pyridin-3-yl)-5,6,7,8-tetrahydropyrido[3,4-d]pyrimidin-4-yl)piperazin-2-yl)acetonitrile], the pIC50 is 6.00 to 10.00.
The result for `C=CC(=O)N1CCN(c2nc(OC[C@@H]3C[C@@H](O)CN3C)nc3c2CCN(c2cccc(Cl)c2C(F)(F)F)C3)C[C@@H]1CC#N` [Example 426, 2-((S)-1-acryloyl-4-(7-(3-chloro-2-(trifluoromethyl)phenyl)-2-(((2S,4R)-4-hydroxy-1-methylpyrrolidin-2-yl)methoxy)-5,6,7,8-tetrahydropyrido[3,4-d]pyrimidin-4-yl)piperazin-2-yl)acetonitrile] reads 6.00 to 10.00.
`C=CC(=O)N1CCN(c2nc(O[C@H](C)CN(C)C)nc3c2CCN(c2c(C)cccc2O)C3)CC1` [Example 95, (R)-1-(4-(2-((1-(dimethylamino)propan-2-yl)oxy)-7-(2-hydroxy-6-methylphenyl)-5,6,7,8-tetrahydropyrido[3,4-d]pyrimidin-4-yl)piperazin-1-yl)prop-2-en-1-one]: the pIC50 was under 6.00.
Consider `C=CC(=O)N1CCN(c2nc(OC[C@@H]3CCN(C)C3)nc3c2CCN(c2cccc4ccccc24)C3)C[C@@H]1CC#N` [Example 410, 2-((S)-1-acryloyl-4-(2-(((R)-1-methylpyrrolidin-3-yl)methoxy)-7-(naphthalen-1-yl)-5,6,7,8-tetrahydropyrido[3,4-d]pyrimidin-4-yl)piperazin-2-yl)acetonitrile], for which the pIC50 is 6.00 to 10.00.
The result for `C=CC(=O)N1CCN(c2nc(OC[C@@H]3C[C@@H](F)CN3C(C)C)nc3c2CCN(c2cncc(F)c2C(F)(F)F)C3)C[C@@H]1CC#N` [Example 386, 2-((S)-1-acryloyl-4-(2-(((2S,4R)-4-fluoro-1-isopropylpyrrolidin-2-yl)methoxy)-7-(5-fluoro-4-(trifluoromethyl)pyridin-3-yl)-5,6,7,8-tetrahydropyrido[3,4-d]pyrimidin-4-yl)piperazin-2-yl)acetonitrile] reads 6.00 to 10.00.
Then `C=CC(=O)N1CCN(c2nc(OCCCN3CCOCC3)nc3c2CCN(c2cc(O)ccc2OC(F)(F)F)C3)CC1` [Example 90, 1-(4-(7-(5-hydroxy-2-(trifluoromethoxy)phenyl)-2-(3-morpholinopropoxy)-5,6,7,8-tetrahydropyrido[3,4-d]pyrimidin-4-yl)piperazin-1-yl)prop-2-en-1-one], with 6.00 to 10.00; and `Cc1cccc(N2CCc3c(nc(OC[C@@H]4CCCN4C)nc3N3CCN(C(=O)/C=C/CN(C)C)[C@@H](CC#N)C3)C2)c1C` [Example 404, 2-((S)-1-((E)-4-(dimethylamino)but-2-enoyl)-4-(7-(2,3-dimethylphenyl)-2-(((S)-1-methylpyrrolidin-2-yl)methoxy)-5,6,7,8-tetrahydropyrido[3,4-d]pyrimidin-4-yl)piperazin-2-yl)acetonitrile], with 6.00 to 10.00.
On to `C=CC(=O)N1CCN(c2nc(OC[C@@H]3CCCN3CC)nc3c2CCN(c2cc(O)cc4ccccc24)C3)CC1` [Example 197, (S)-1-(4-(2-((1-ethylpyrrolidin-2-yl)methoxy)-7-(3-hydroxynaphthalen-1-yl)-5,6,7,8-tetrahydropyrido[3,4-d]pyrimidin-4-yl)piperazin-1-yl)prop-2-en-1-one], for which the pIC50 was 6.00 to 10.00.
The result for `C=CC(=O)N1CCN(c2nc(OC[C@@H]3CCCN3C)nc3c2CCN(c2cccc4ncccc24)C3)CC1CC#N` (stereo partly drawn) [Example 294, 2-[4-[2-[[(2S)-1-methylpyrrolidin-2-yl]methoxy]-7-(5-quinolyl)-6,8-dihydro-5H-pyrido[3,4-d]pyrimidin-4-yl]-1-prop-2-enoyl-piperazin-2-yl]acetonitrile] reads under 6.00; that for `C=CC(=O)N1CCN(c2nc(OC[C@@H]3CCCN3C)nc3c2CCN(c2ccncc2C(F)(F)F)C3)CC1CC#N` (stereo partly drawn) [Example 375, 2-(1-acryloyl-4-(2-(((S)-1-methylpyrrolidin-2-yl)methoxy)-7-(3-(trifluoromethyl)pyridin-4-yl)-5,6,7,8-tetrahydropyrido[3,4-d]pyrimidin-4-yl)piperazin-2-yl)acetonitrile], under 6.00; that for `C=CC(=O)N1CCN(c2nc(O[C@@H](C)[C@@H]3CCCN3C)nc3c2CCN(c2cc(O)cc4ccccc24)C3)CC1` [Example 130, 1-(4-(7-(3-hydroxynaphthalen-1-yl)-2-((S)-1-((S)-1-methylpyrrolidin-2-yl)ethoxy)-5,6,7,8-tetrahydropyrido[3,4-d]pyrimidin-4-yl)piperazin-1-yl)prop-2-en-1-one], 6.00 to 10.00.
The result for `CN(C)C/C=C/C(=O)N1CCN(c2nc(OC[C@@H]3CCCN3C)nc3c2CCN(c2cccc(Cl)c2C(F)(F)F)C3)C[C@@H]1CC#N` [Example 427] reads 6.00 to 10.00; that for `C=CC(=O)N1CCN(c2nc(OC[C@@H]3CCCN3C)nc3c2CCN(c2ccc(F)c(C)c2C)C3)C[C@@H]1CC#N` [Example 424, 2-((S)-1-acryloyl-4-(7-(4-fluoro-2,3-dimethylphenyl)-2-(((S)-1-methylpyrrolidin-2-yl)methoxy)-5,6,7,8-tetrahydropyrido[3,4-d]pyrimidin-4-yl)piperazin-2-yl)acetonitrile], 6.00 to 10.00; that for `C=CC(=O)N1CCN(c2nc(OC[C@@H]3CCCN3C)nc3c2CCN(c2cccc(Cl)c2C(F)(F)F)C3)CC1CC#N` (stereo partly drawn) [Example 414, 2-(1-acryloyl-4-(7-(3-chloro-2-(trifluoromethyl)phenyl)-2-(((S)-1-methylpyrrolidin-2-yl)methoxy)-5,6,7,8-tetrahydropyrido[3,4-d]pyrimidin-4-yl)piperazin-2-yl)acetonitrile], 6.00 to 10.00.
The result for `C=CC(=O)N1CCN(c2nc(OCC3CCN(CC(=O)N(C)C)C3)nc3c2CCN(c2cc(O)cc4ccccc24)C3)CC1` (stereo not drawn) [Example 140, 2-[3-[[7-(3-hydroxy-1-naphthyl)-4-(4-prop-2-enoylpiperazin-1-yl)-6,8-dihydro-5H-pyrido[3,4-d]pyrimidin-2-yl]oxymethyl]pyrrolidin-1-yl]-N,N-dimethyl-acetamide] reads under 6.00; that for `C=CC(=O)N1CCN(c2nc(OCCCN3CCS(=O)(=O)CC3)nc3c2CCN(c2cc(O)cc4ccccc24)C3)CC1` [Example 34, 1-(4-(2-(3-(1,1-dioxidothiomorpholino)propoxy)-7-(3-hydroxynaphthalen-1-yl)-5,6,7,8-tetrahydropyrido[3,4-d]pyrimidin-4-yl)piperazin-1-yl)prop-2-en-1-one trifluoroacetate], under 6.00; that for `C=CC(=O)N1CCN(c2nc(OC[C@@H]3CCCN3C)nc3c2CCN(c2cncc(Cl)c2C)C3)C[C@@H]1CC#N` [Example 387, 2-((S)-1-acryloyl-4-(7-(5-chloro-4-methylpyridin-3-yl)-2-(((S)-1-methylpyrrolidin-2-yl)methoxy)-5,6,7,8-tetrahydropyrido[3,4-d]pyrimidin-4-yl)piperazin-2-yl)acetonitrile], 6.00 to 10.00.
Take `C=CC(=O)N1CCN(c2nc(OC[C@@H]3CCCN3C)nc3c2CCN(c2cc(O)cc4ccccc24)C3)[C@@H](C)C1` [Example 202, 1-((S)-4-(7-(3-hydroxynaphthalen-1-yl)-2-(((S)-1-methylpyrrolidin-2-yl)methoxy)-5,6,7,8-tetrahydropyrido[3,4-d]pyrimidin-4-yl)-3-methylpiperazin-1-yl)prop-2-en-1-one]: the pIC50 is 6.00 to 10.00.
The result for `C=C(F)C(=O)N1CCN(c2nc(OCC3CCCC3)nc3c2CCN(c2cccc4cccc(C)c24)C3)C[C@@H]1CC#N` [Example 603, 2-[(2S)-4-[2-(cyclopentylmethoxy)-7-(8-methyl-1-naphthyl)-6,8-dihydro-5H-pyrido[3,4-d]pyrimidin-4-yl]-1-(2-fluoroprop-2-enoyl)piperazin-2-yl]acetonitrile] reads under 6.00.
Turning to `C=CC(=O)N1CCN(c2nc(OC[C@@H]3CCCN3C)nc3c2CCN(c2cccc4cc(F)ccc24)C3)CC1CC#N` (stereo partly drawn) [Example 290, 2-[4-[7-(6-fluoro-1-naphthyl)-2-[[(2S)-1-methylpyrrolidin-2-yl]methoxy]-6,8-dihydro-5H-pyrido[3,4-d]pyrimidin-4-yl]-1-prop-2-enoyl-piperazin-2-yl]acetonitrile], the pIC50 is 6.00 to 10.00.
Then `C=CC(=O)N1CCN(c2nc(O[C@H](C)CN3CCN(C(C)=O)CC3)nc3c2CCN(c2cc(O)cc4ccccc24)C3)CC1` [Example 36, (R)-1-(4-(2-((1-(4-acetylpiperazin-1-yl)propan-2-yl)oxy)-7-(3-hydroxynaphthalen-1-yl)-5,6,7,8-tetrahydropyrido[3,4-d]pyrimidin-4-yl)piperazin-1-yl)prop-2-en-1-one], with under 6.00; and `C=C(F)C(=O)N1CCN(c2nc(OC[C@@H]3C[C@@H](F)CN3C)nc3c2CCN(c2c(C)c(C)cc4[nH]ncc24)C3)C[C@@H]1CC#N` [Example 606, 2-((S)-4-(7-(5,6-dimethyl-1H-indazol-4-yl)-2-(((2S,4R)-4-fluoro-1-methylpyrrolidin-2-yl)methoxy)-5,6,7,8-tetrahydropyrido[3,4-d]pyrimidin-4-yl)-1-(2-fluoroacryloyl)piperazin-2-yl)acetonitrile], with 6.00 to 10.00; and `C=CC(=O)N1CCN(c2nc(OCC(CO)N(C)C)nc3c2CCN(c2cc(O)cc4ccccc24)C3)CC1` (stereo not drawn) [Example 55, 1-(4-(2-(2-(dimethylamino)-3-hydroxypropoxy)-7-(3-hydroxynaphthalen-1-yl)-5,6,7,8-tetrahydropyrido[3,4-d]pyrimidin-4-yl)piperazin-1-yl)prop-2-en-1-one], with 6.00 to 10.00.
On to `C=CC(=O)N1CCN(c2nc(OC[C@@H]3CCCN3C)nc3c2CCN(c2ccccc2F)C3)CC1CC#N` (stereo partly drawn) [Example 227, 2-(1-acryloyl-4-(7-(2-fluorophenyl)-2-(((S)-1-methylpyrrolidin-2-yl)methoxy)-5,6,7,8-tetrahydropyrido[3,4-d]pyrimidin-4-yl)piperazin-2-yl)acetonitrile], for which the pIC50 was 6.00 to 10.00.

The term pIC50 denotes the IC50 on a negative log10 scale, so that one unit is a factor of ten.
